Where a name gives a salt, the structure may show the parent alone. Read-outs that look alike come from different tables or passages of the source.
Test system: THP-1 cells
Test: THP-1 Soluble Protein Assay (LPS-stimulated; ELISA of TNF-a, TNF-R p75/80, TNF-R p55/60, IL-8)
Format: cell-based, human
Settings: Homo sapiens
[1] = THP-1, read-out: THP % inhibition @ 3 µM, 3 µM
[2] = THP-1, 3 µM, read-out: THP % Inhibition @ 3µM

`CC#CCOc1ccc(S(=O)(=O)N(C)C(C(=O)NO)C(C)C)cc1` (stereo not shown) [Example 9, 2-[(4-But-2-ynyloxy-benzenesulfonyl)-methyl-amino]-N-hydroxy-3-methyl-butyramide] showed an inhibition at 3 µM [1] of 94%.

`CC(=O)OCCCCC#CCOc1ccc(S(=O)(=O)N2CCSC(C)(C)[C@@H]2C(=O)NO)cc1` [Example 268, 7-[4-({(3S)-3-[(Hydroxyamino)carbonyl]-2,2-dimethylthiomorpholinyl}sulfonyl)phenoxy]-5-heptynyl acetate] was tested, and the inhibition at 3 µM [1] was 76%.

`CC#CCOc1ccc(S(=O)(=O)N2CCS(=O)(=O)C(C)(C)[C@@H]2C(=O)NO)cc1` [Example 257, (3S)-4-{[4-(2-Butynyloxy)phenyl]sulfonyl}-N-hydroxy-2,2-dimethyl-3-thiomorpholine carboxamide 1,1-dioxide] was tested, and the inhibition at 3 µM [1] was 91%.

`CC#CCOc1ccc(S(=O)(=O)N(C)C(C(=O)NO)c2ccc(OCCCNC(=O)OCC)cc2)cc1` (stereo not shown) [Example 193, Ethyl 3-{4-[1-[{[4-(2-butynyloxy)phenyl]sulfonyl}(methyl)amino]-2-(hydroxyamino)-2-oxoethyl]phenoxy}propylcarbamate] showed an inhibition at 3 µM [1] of 91%.

Compound `CC#CCOc1ccc(S(=O)(=O)N(C)C(C(=O)NO)c2ccc(OCCNC)cc2)cc1` (stereo not shown) [Example 192, 2-({[4-(2-Butynyloxy)phenyl]sulfonyl}(methyl)amino)-N-hydroxy-2-{4-[2-(methylamino)ethoxy]phenyl}acetamide] has an inhibition at 3 µM [1] of 95%.

In the case of `CC#CCOc1ccc(S(=O)(=O)N(CC#CCN2CCN(C)CC2)C(C)C(=O)NO)cc1` (stereo not shown) [Example 135, 2-{[[4-(2-butynyloxy)phenyl]sulfonyl][4-(4-methyl-1-piperazinyl)-2-butynylamino]}-N-hydroxypropanamide], the inhibition at 3 µM [1] is reported as 76%.

With `CC#CCOc1ccc(S(=O)(=O)N(C)[C@@H](C(=O)NO)c2ccc(O[C@H]3CCNC3)cc2)cc1` [Example 190, (2R)-2-[{[4-(2-Butynyloxy)phenyl]sulfonyl}(methyl)amino]-N-hydroxy-2-{4-[(3S)-pyrrolidinyloxy]phenyl}ethanamide] the inhibition at 3 µM [1] was 94%.

`CC#CCOc1ccc(S(=O)(=O)N2CCN(C(=O)Nc3cc(Cl)cc(Cl)c3)CC2C(=O)NO)cc1` (stereo not shown) [Example 223, 4-{[4-(2-Butynyloxy)phenyl]sulfonyl}-N-1-(3,5-dichlorophenyl)-N-3-hydroxy-1,3-piperazinedicarboxamide] showed an inhibition at 3 µM [1] of 42%.

For `CC#CCOc1ccc(S(=O)(=O)N2C[C@H](CC(=O)NCCN(C)C)SC(C)(C)[C@@H]2C(=O)NO)cc1` [Example 284, (3S,6S)-4-{[4-(2-Butynyloxy)phenyl]sulfonyl}-6-(2-{[2-(dimethylamino)ethyl]amino}-2-oxoethyl)-N-hydroxy-2,2-dimethyl-3-thiomorpholinecarboxamide], the inhibition at 3 µM [2] was 88%.

Work on `CC#CCOc1ccc(S(=O)(=O)N2CCN(C(=O)N(CC)CC)CC2C(=O)NO)cc1` (stereo not shown) [Example 216, 4-(4-But-2-ynyloxy-benzenesulfonyl)-piperazine-1,3-dicarboxylic acid 1-diethylamide 3-hydroxyamide] yielded an inhibition at 3 µM [1] of 59%.

`CC1(C)SCCN(S(=O)(=O)c2ccc(OCC#CCCCO)cc2)C1C(=O)NO` (stereo not shown) [Example 249, N-Hydroxy-4-({4-[(6-hydroxy-2-hexynyl)oxy]phenyl}sulfonyl)-2,2-dimethyl-3-thiomorpholine carboxamide] showed an inhibition at 3 µM [1] of 51%.

`CCC#CCOc1ccc(S(=O)(=O)N2CCSC(C)(C)[C@@H]2C(=O)NO)cc1` [Example 259, (3S)-N-Hydroxy-2,2-dimethyl-4-{[4-(2-pentynyloxy)phenyl]sulfonyl}-3-thiomorpholine carboxamide] showed an inhibition at 3 µM [1] of 92%.

Compound `CC#CCOc1ccc(S(=O)(=O)NC(C(=O)NO)c2ccc(OCCN3CCN(C(=O)OC(C)(C)C)CC3)cc2)cc1` (stereo not shown) [Example 202, tert-Butyl 4-(2-{4-[1-({[4-(2-butynyloxy)phenyl]sulfonyl}amino)-2-(hydroxyamino)-2-oxoethyl)phenoxy]ethyl)-1-piperazinecarboxylate] has an inhibition at 3 µM [1] of 45%.

With `CC#CCOc1ccc(S(=O)(=O)N2CC[S+]([O-])C(C)(C)C2C(=O)NO)cc1` (single isomer, unassigned) [Example 256] the inhibition at 3 µM [1] was 92%.

`CC#CCOc1ccc(S(=O)(=O)N[C@@H](C(=O)NO)c2ccc(OCCNC(C)=O)cc2)cc1` [Example 201, (2R)-2-{4-[2-(Acetylamino)ethoxy]phenyl}-2-({[4-(2-butynyloxy)phenyl]sulfonyl}amino)-N-hydroxyethanamide] gave an inhibition at 3 µM [1] of 77%.

`CC#CCOc1ccc(S(=O)(=O)N2CCN(C(=O)OCc3ccccc3)CC2C(=O)NO)cc1` (stereo not shown) [Example 219, Benzyl 4-{[4-(2-butynyloxy)phenyl]sulfonyl}-3-[(hydroxyamino)carbonyl]-1-piperazinecarboxylate] gave an inhibition at 3 µM [1] of 87%.

With `CN(CC#CCOc1ccc(S(=O)(=O)N2CCSC(C)(C)C2C(=O)NO)cc1)C(=O)OC(C)(C)C` (stereo not shown) [Example 267, tert-butyl 4-[4-({3-[(hydroxyamino)carbonyl]-2,2-dimethyl-4-thiomorpholinyl}sulfonyl)phenoxy]-2-butynyl(methyl)carbamate] the inhibition at 3 µM [1] was 15%.

Compound `CC#CCOc1ccc(S(=O)(=O)N(CCCN(CC)CC)C(C(=O)NO)C(C)C)cc1` (stereo not shown) [Example 118, 2-{{[4-(2-Butynyloxy)phenyl]sulfonyl}[3-(diethylamino)propyl]amino}-N-hydroxy-3-methylbutanamide] has an inhibition at 3 µM [1] of 77%.

For `CC#CCOc1ccc(S(=O)(=O)N(C)C(C(=O)NO)C(C)(C)SCCCN2CCN(C)CC2)cc1` (stereo not shown) [Example 147, 2-({[4-(2-Butynyloxy)phenyl]sulfonyl)(methyl)amino]-N-hydroxy-3-methyl-3-{[2(4-methyl-1-ethyl-1-piperazinyl)propyl]sulfanyl}butanamide], the inhibition at 3 µM [1] was 89%.

Compound `CC1(C)SCCN(S(=O)(=O)c2ccc(OCC#CC#CCO)cc2)[C@H]1C(=O)NO` [Example 262, (3S)-N-Hydroxy-4-({4-[(6-hydroxy-2,4-hexadiynyl)oxy]phenyl}sulfonyl)-2,2-dimethyl-3-thiomorpholine carboxamide] has an inhibition at 3 µM [1] of 81%.

`CC#CCOc1ccc(S(=O)(=O)N(CC#CCNC)C(C(=O)NO)C(C)C)cc1` (stereo not shown) [Example 127, 2-{{[4-(2-Butynyloxy)phenyl]sulfonyl}[4-(methylamino)-2-butynyl]amino}-N-hydroxy-3-methylbutanamide] gave an inhibition at 3 µM [1] of 83%.

Work on `CC#CCOc1ccc(S(=O)(=O)N(Cc2cccnc2)C(C)C(=O)NO)cc1` (stereo not shown) [Example 33, 2-[(4-But-2-ynyloxy-benzenesulfonyl)-pyridin-3-ylmethyl-amino]-N-hydroxy-propionamide hydrochloride] yielded an inhibition at 3 µM [1] of 80%.

`CC#CCOc1ccc(S(=O)(=O)N(C)C(CCCSc2ccc(Cl)cc2)C(=O)NO)cc1` (stereo not shown) [Example 213, 2-[{[4-(2-Butynyloxy)phenyl]sulfonyl}(methyl)amino]-5-[(4-chlorophenyl)sulfanyl]-N-hydroxypentanamide] gave an inhibition at 3 µM [1] of 87%.

Work on `CC#CCOc1ccc(S(=O)(=O)N(C)C(C(=O)NO)c2ccc(OCCN3CCOCC3)cc2)cc1` (stereo not shown) [Example 179, 2-[{[4-(2-Butynyloxy)phenyl]sulfonyl}(methyl)amino]-N-hydroxy-2-{4-[2-(4-morpholinyl)ethoxy]phenyl}acetamide] yielded an inhibition at 3 µM [1] of 97%.

Compound `CC#CCOc1ccc(S(=O)(=O)N2CCN(C(=O)Nc3ccc(F)cc3)CC2C(=O)NO)cc1` (stereo not shown) [Example 222, 4-{[4-(2-Butynyloxy)phenyl]sulfonyl}-N-1-(4-fluorophenyl)-N-3-hydroxy-1,3-piperazinedicarboxamide] has an inhibition at 3 µM [1] of 61%.

`CC1(C)SCCN(S(=O)(=O)c2ccc(OCC#CCCCOC3CCCCO3)cc2)C1C(=O)NO` (stereo not shown) [Example 248, N-Hydroxy-2,2-dimethyl-4-[(4-{[6-(tetrahydro-2H-pyran-2-yloxy)-2-hexynyl]oxy}phenyl)sulfonyl]-3-thiomorpholine carboxamide] gave an inhibition at 3 µM [1] of 21%.

`CC#CCOc1ccc(S(=O)(=O)N2C[C@@H](CNC(=O)OC(C)(C)C)SC(C)(C)[C@@H]2C(=O)NO)cc1` [Example 273, tert-Butyl{(2R,5S)-4-{[4-(2-butynyloxy)phenyl]sulfonyl}-5-[(hydroxyamino)carbonyl]-6,6-dimethylthiomorpholinyl}methylcarbamate] was tested, and the inhibition at 3 µM [2] was 90%.

Work on `CC#CCOc1ccc(S(=O)(=O)N2CSC(C)(C)[C@@H]2C(=O)NO)cc1` [Example 286, (4S)-3-{(4-(2-Butynyloxy)phenyl]sulfonyl}-N-hydroxy-5,5-dimethyl-1,3-thiazolidine-4-carboxamide] yielded an inhibition at 3 µM [2] of 73%.

`CC#CCOc1ccc(S(=O)(=O)N2CCN(C(=O)N(C(C)C)C(C)C)CC2C(=O)NO)cc1` (stereo not shown) [Example 218, 4-(4-But-2-ynyloxy-benzenesulfonyl)-piperazine-1,3-dicarboxylic acid 1-diisopropylamide 3-hydroxyamide] showed an inhibition at 3 µM [1] of 56%.

`CC#CCOc1ccc(S(=O)(=O)NC(C(=O)NO)c2ccc(OCCc3scnc3C)cc2)cc1` (stereo not shown) [Example 208, 2-({[4-(2-Butynyloxy)phenyl]sulfonyl}amino)-N-hydroxy-2-{4-[2-(4-methyl-1,3-thiazol-5-yl)ethoxy]phenyl}acetamide] showed an inhibition at 3 µM [1] of 74%.

For `CC#CCOc1ccc(S(=O)(=O)N(C)C(C(=O)NO)c2ccc(OCCCNC(C)=O)cc2)cc1` (stereo not shown) [Example 194, 2-{4-[3-(Acetylamino)propoxy]phenyl}-2-[{[4-(2-butynyloxy)phenyl]sulfonyl}(methyl)amino]-N-hydroxyacetamide], the inhibition at 3 µM [1] was 94%.

In the case of `CC#CCOc1ccc(S(=O)(=O)N(C)C(C(=O)NO)c2ccc(OC)cc2)cc1` (stereo not shown) [Example 178, 2-[{[4-(2-Butynyloxy)phenyl]sulfonyl}(methyl)amino]-N-hydroxy-2-(4-methoxyphenyl)acetamide], the inhibition at 3 µM [1] is reported as 91%.

`CC#CCOc1ccc(S(=O)(=O)N(C)C(C(=O)NO)c2ccc(OCCNC(=O)OC(C)(C)C)cc2)cc1` (stereo not shown) [Example 180, tert-Butyl 2-{4-[1-[{[4-(2-butynyloxy)phenyl]sulfonyl}(methyl)amino]-2-(hydroxyamino)-2-oxoethyl]phenoxy}ethylcarbamate] was tested, and the inhibition at 3 µM [1] was 89%.

`CC#CCOc1ccc(S(=O)(=O)N2C[C@@H](CN)SC(C)(C)[C@@H]2C(=O)NO)cc1` [Example 275, (3S,6R)-Trans-6-(aminomethyl)-4-{[4-(2-butynyloxy)phenyl]sulfonyl}-N-hydroxy-2,2-dimethyl-3-thiomorpholinecarboxamide hydrochloride] showed an inhibition at 3 µM [2] of 82%.

Source: patent publication EP1144368B1, “ACETYLENIC ALPHA-AMINO ACID-BASED SULFONAMIDE HYDROXAMIC ACID TACE INHIBITORS” (priority 1999, dated 2000)
